Assay results as given in patent US20100216255A1, “METHODS OF DETERMINING ACTIVE LEVELS OF DRUGS IN FLUID SAMPLES” (CLINICAL REFERENCE LABORATORY, priority 2001, published 2010).

Each compound was assayed against T1, Beta-1-adrenergic receptor (Homo sapiens, UniProt P08588) (assay: Cell receptor assay, competition with radiolabeled 125-iodocyanopindolol). Conditions: cut-off control, 20 ug/ml Atenolol in drug negative urine, diluted 1 to 10 before assay; 2 h at room temperature; counts inversely related to unlabeled ligand.
T1 construct: purchased Sigma Chemical RBIB-143
Type: binding
Experimental: This example provides a cell receptor assay for B1 adrenergic receptors and tests the accuracy of the assay. Patient urine that may or may not contain target ligand and a radiolabeled competitive ligand are added to a test tube containing a limited concentration of cell membrane containing beta-1-adrenergic receptors. The unlabeled ligand in the patient's urine competes with the labeled ligand for the receptor sites during an incubation period. Following incubation the tubes are centrifuged to precipitate the cell membrane-receptors. The solution containing unbound ligand is decanted and the radioactivity retained in the tubes is detected in a gamma counter. The amount of radioactivity bound is indirectly proportional to the concentration of unlabeled ligand present in the patient's urine. […] Adjust the pH to 7.4 with concentrated hydrochloric acid and fill to volume with deionized water. […] Thaw the stock solution of membrane and dilute to 30 milliliter with Tris working buffer. […] The working solution of radiolabel is prepared by diluting the stock 1 to 30 with Tris working buffer. […] Atenolol, propranolol and metoprolol were diluted with HPLC grade ethyl alcohol (Aldrich Chemical Company Milwaukee, Wis.) to produce a 1.0 mg/ml stock solution for each drug. […] The total radioactivity was detected on Packard Cobra II Auto Gamma counter (Packard Instrument Company Downers Grove, Ill.).

T1 sequence (P08588 whole entry, species assumed): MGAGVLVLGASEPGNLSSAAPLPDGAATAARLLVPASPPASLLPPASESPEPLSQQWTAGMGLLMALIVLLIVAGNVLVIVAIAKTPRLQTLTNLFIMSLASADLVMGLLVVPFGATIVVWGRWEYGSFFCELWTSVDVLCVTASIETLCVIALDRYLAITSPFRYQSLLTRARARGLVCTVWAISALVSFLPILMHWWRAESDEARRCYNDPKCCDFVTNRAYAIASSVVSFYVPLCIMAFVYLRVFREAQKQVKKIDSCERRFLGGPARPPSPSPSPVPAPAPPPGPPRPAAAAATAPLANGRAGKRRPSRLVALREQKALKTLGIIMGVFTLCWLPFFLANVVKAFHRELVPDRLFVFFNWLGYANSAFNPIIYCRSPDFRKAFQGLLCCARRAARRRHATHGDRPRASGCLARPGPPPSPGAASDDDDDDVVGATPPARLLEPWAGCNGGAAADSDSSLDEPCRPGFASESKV

Counts per Minute | SMILES
5117 | CC(C)NCC(O)COc1ccc(CC(N)=O)cc1 (stereo not shown) [Atenolol]

These compounds were tested against Angiotensin Converting Enzyme (ACE) (Homo sapiens, UniProt P12821) (assay: ACE enzyme inhibition assay on samples from individuals reporting an ACE-inhibiting drug). Conditions: urine samples from individuals self-reporting the drug; count out of the LISTED number.
Angiotensin Converting Enzyme (ACE), sequence (P12821 30-1232 limits assumed): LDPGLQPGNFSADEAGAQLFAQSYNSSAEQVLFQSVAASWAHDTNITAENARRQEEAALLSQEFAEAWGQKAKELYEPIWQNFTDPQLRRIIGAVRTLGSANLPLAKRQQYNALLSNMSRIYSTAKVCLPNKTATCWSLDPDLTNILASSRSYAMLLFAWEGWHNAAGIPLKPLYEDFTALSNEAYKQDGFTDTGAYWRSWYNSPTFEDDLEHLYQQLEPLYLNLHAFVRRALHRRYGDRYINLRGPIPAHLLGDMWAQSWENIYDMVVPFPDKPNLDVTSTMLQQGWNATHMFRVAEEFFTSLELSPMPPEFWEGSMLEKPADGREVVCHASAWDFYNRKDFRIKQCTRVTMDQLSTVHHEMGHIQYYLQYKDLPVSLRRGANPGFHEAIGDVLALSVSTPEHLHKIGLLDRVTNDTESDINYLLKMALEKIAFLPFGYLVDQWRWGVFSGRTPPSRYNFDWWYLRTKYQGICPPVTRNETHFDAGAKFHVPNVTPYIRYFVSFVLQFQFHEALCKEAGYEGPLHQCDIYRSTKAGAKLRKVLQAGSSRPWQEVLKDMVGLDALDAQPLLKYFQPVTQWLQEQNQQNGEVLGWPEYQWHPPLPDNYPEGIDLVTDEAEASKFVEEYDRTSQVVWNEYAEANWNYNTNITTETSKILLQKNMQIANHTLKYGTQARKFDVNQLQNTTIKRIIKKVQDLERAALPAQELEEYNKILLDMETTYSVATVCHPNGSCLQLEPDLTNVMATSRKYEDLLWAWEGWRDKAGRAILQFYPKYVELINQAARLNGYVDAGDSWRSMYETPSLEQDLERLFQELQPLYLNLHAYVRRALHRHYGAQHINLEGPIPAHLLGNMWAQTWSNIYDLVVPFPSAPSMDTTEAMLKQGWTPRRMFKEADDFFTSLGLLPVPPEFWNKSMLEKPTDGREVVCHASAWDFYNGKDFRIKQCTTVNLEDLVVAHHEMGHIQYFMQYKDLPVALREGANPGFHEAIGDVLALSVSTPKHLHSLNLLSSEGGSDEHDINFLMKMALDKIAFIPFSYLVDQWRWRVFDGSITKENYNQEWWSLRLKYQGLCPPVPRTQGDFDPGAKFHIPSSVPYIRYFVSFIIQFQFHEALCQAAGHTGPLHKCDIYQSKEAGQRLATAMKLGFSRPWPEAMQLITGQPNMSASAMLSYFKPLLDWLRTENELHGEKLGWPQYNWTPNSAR
Experimental: The bottle was then inverted a few times and then put on a shaker (Clay Adams CA6000 Centrifuge Becton Dickinson Microbiology System Sparks, Md.) at speed setting 2 for ten minutes. […] The pH was adjusted to 8.2 with 6 N hydrochloric acid.
Using the above-described reagents, a Hamilton MicroLab AT pipetting station was used to transfer 100 μl of the ACE serum in Tris buffer to each well of a microtiter plate. Next, 25 μl of the cut-off level calibrator, controls and unknown were added to their corresponding well locations with the Hamilton MicroLab AT, as shown in Table 1.
Five different patient samples were then added to five other wells. The microtiter plate was shaker on Titer Plate Shaker (Lab Line Instruments, Inc. Melrose, Ill.) at a setting of 2 for at least five minutes before pipetting 100 μl of the substrate FAPGG into each well. Next, solution was mixed by shaking the microtiter plate on the shaker at a speed setting of 2 for one minute. The microtiter plate was placed in the Spectra Mac Plus (Molecular Devices, Sunnyvale, Calif.) plate reader and the optical density of each sample at 340 nanoMeter was determined. The microtiter plate was then incubated at 37° C. for two hours. The optical density was again determined on the plate reader. This two-hour reading of optical density was then subtracted from the initial reading of optical density and termed the “delta OD 340.”
Fluid samples were obtained from individuals reporting that they were currently taking an ACE-inhibiting drug. […] The medications reported by the patients included eight different medications of the ACE-inhibiting drug family. Each individual reported taking only one specific ACE-inhibiting drug. Thus, this example tests the ability of the assay to identify individuals on ACE-inhibiting drugs without prior knowledge of the specific drug being taken.

DETECTED (samples testing positive for ACE-inhibiting drugs) | SMILES
14 | CCOC(=O)[C@H](CCc1ccccc1)N[C@H]1CCc2ccccc2N(CC(=O)O)C1=O [BENAZEPRIL, benazepril]
5 | CCOC(=O)[C@H](CCc1ccccc1)N[C@@H](C)C(=O)N1CCC[C@H]1C(=O)O [ENALAPRIL, enalapril]
22 | NCCCC[C@H](N[C@@H](CCc1ccccc1)C(=O)O)C(=O)N1CCC[C@H]1C(=O)O [LISINOPRIL, lisinopril]
3 | CCOC(=O)[C@H](CCc1ccccc1)N[C@@H](C)C(=O)N1Cc2cc(OC)c(OC)cc2C[C@H]1C(=O)O [MOEXIPRIL, moexipril]
15 | CCOC(=O)[C@H](CCc1ccccc1)N[C@@H](C)C(=O)N1Cc2ccccc2C[C@H]1C(=O)O [QUINAPRIL, quinapril]
2 | CCOC(=O)[C@H](CCc1ccccc1)N[C@@H](C)C(=O)N1[C@H](C(=O)O)C[C@@H]2CCC[C@@H]21 [RAMIPRIL, ramipril]
